US6852710B2, “2-alkoxyestradiol analogs with antiproliferative and antimitotic activity” (Southwest Foundation for Biomedical Research, priority 2001, dated 2005)

Experiments:
SK-OV-3 cells = experiment: SRB assay, inhibition of proliferation; type: cell-based; details: Homo sapiens; SK-OV-3, 48 hours, n=3 mean±SD
Experimental: (§1) The 4 analogs of 2-ME2 set forth in Table 1 were tested for antiproliferative activity against 6 human tumor cell lines. The SK-OV-3 cell line was derived from ovarian carcinoma, the MDA-MB-435 and NCI/ADR from breast adenocarcinoma, PC3 and DU 145 from prostate carcinoma and HeLa from cervical carcinoma. The SK-OV-3, HeLa, PC3, and DU 145 and cell lines were obtained from the American Type Culture Collection, 10801 University Blvd., Manassas, Va. 20110-2209. The MDA-MB-435 cell line was obtained from the Lombardi Cancer Center of Georgetown University School of Medicine and the NCI/ADR cell line was obtained from the National Cancer Institute, Fairview Center, Suite 204, 1003 West 7th Street, Frederick, Md. 21701-8531.
(§2) Cells were plated into 96 well plates and allowed to grow and attach for 18-24 hours and then the drugs or vehicle controls were added to the wells. Each data point represents the mean of three experiments, each of which consisted of three replicates within an experiment. The cells were incubated with the drugs for 48 hours and then the cellular protein was fixed and quantified using the sulforhodamine B (SRB) assay. The absorbance of the dye is linear with respect to both cell protein and cell number (Skehan, P.; Storeng, R.; Scudiero, D., Monks; A., McMahon, J.; Vistica, D., Warren, J. T.; Bokesch, H., Kenney, S.; and Boyd, M. R., “New colorimetric cytotoxicity assay for anticancer-drug screening”, J. Natl. Cancer Inst, 82, 1107-1112 (1990)). The effects of the drugs were compared to vehicle controls and the data plotted as percent of control vs. log of drug concentration.
(§3) The IC50 is defined as the drug concentration required to inhibit cell proliferation 50% and is calculated from the linear portion of the log concentration response curve.
(§4) The IC50 values for inhibition of proliferation were calculated from the log dose response curve (n=3, mean±SD).

PC3 cells = experiment: SRB assay, inhibition of proliferation; type: cell-based; details: Homo sapiens, PC-3; PC3, 48 hours, n=3 mean±SD
Experimental: as §1, §2, §3, §4

HeLa cells = experiment: SRB assay, inhibition of proliferation; type: cell-based; details: Homo sapiens, 48 hours, n=3 mean±SD
Experimental: as §1, §2, §3, §4

NCI/ADR cells = experiment: SRB assay, inhibition of proliferation, multidrug resistant line; type: cell-based, human; details: for IC50: Homo sapiens, NCI/ADR-RES, NCI/ADR multidrug resistant, 48 hours, n=3 mean±SD; for NCI-ADR/MDA-MB-435 resistance factor: IC50 in NCI/ADR divided by IC50 in MDA-MB-435
Description: as §1, with “The” for “The 4 analogs of 2-ME2 set forth in Table 1 were tested for antiproliferative activity against 6 human tumor cell lines. The”
as §2, §3, §4
The effects of the analogs on a multi-drug resistant cell line were also studied. The NCI/ADR cell line is resistant to many chemotherapeutic agents by virtue of its high expression of the drug efflux pump P-glycoprotein. The NCI/ADR cell line was obtained from the National Cancer Institute, Fairview Center, Suite 204, 1003 West 7th Street, Frederick, Md. 21701-8531.
The IC50 values for inhibition of proliferation were calculated from the dose-response curves. The values represent the mean of 3 experiments ±SD. Resistance factors were calculated by dividing the IC50 of the resistant cell line, NCI/ADR, by the IC50 in a drug sensitive cell line, MDA-MB-435.

[1] = test system: Human Umbilical Vein Endothelial Cells (HUVEC); experiment: HUVEC proliferation (SRB assay); type: cell-based; details: for IC50: Homo sapiens, HUVEC, SRB assay; for potency relative to 2-ME2, HUVEC proliferation: in words
Description: FIG. 2 illustrates the effects of compounds on Human Umbilical Vein Endothelial Cells (HUVEC) proliferation. The SRB assay was used to construct the dose response curves of the agents in HUVEC cells. n=3±SD;
Two in vitro assays were used to detect the potential for antiangiogenic activity of the analogs. One assay tested the ability of the analogs to inhibit the cellular proliferation of endothelial cells as shown below (Table 4). The ability of the analogs to inhibit the proliferation of endothelial cells was tested and compared to the effects of 2-ME2. Drugs that have antiangiogenic activity inhibit the proliferation of endothelial cells.

[2] = test system: Human Umbilical Vein Endothelial Cells (HUVEC); experiment: HUVEC invasion, Matrigel invasion chambers; type: cell-based; details: for IC50: Homo sapiens, HUVEC, Matrigel, 24 hours
Description: FIG. 3 illustrates the effects of compounds on Human Umbilical Vein Endothelial Cells (HUVEC) cell invasion. Becton-Dickinson (BD) Biocoat® Matrigel® invasion chambers were used to construct dose response curves of the compounds for invasion of HUVECs. n=3±SD;
A second assay was also used to evaluate the analogs for potential antiangiogenic activity. The complex process of endothelial cell invasion and migration are key events during angiogenesis. The ability of compounds to inhibit the invasion and migration of endothelial cells through a biological membrane matrix was evaluated. Specifically, the ability of the 2-ME2 analogs, 15-dehydro-2-ME2, 14-dehydro-2-ME2 and 2-ME2-15α,16α to inhibit the invasion and migration of human umbilical vein endothelial cells (HUVEC) through Matrigel® basement membrane material and a PET membrane with 8 μm pores was evaluated. HUVECs were obtained from BioWhittaker and were used during passages of 2 to 6. BD Biocoat® Matrigel® invasion chambers were used for the assays. These modified Boyden chambers have a PET membrane with 8 μm pores that have been coated with Matrigel®. The membrane separates the upper chamber from the lower chamber. HUVECs were plated into the top chamber in media containing 0.1% bovine serum albumin with either a test compound or vehicle and allowed to invade and migrate through pores for 24 hours. The media in the lower chamber contained the chemoattractant, 10% fetal bovine, serum. Following the incubation period the cells on the top of the membrane were removed with a cotton swab and the cells that had migrated through the pores to the lower surface of the membrane were stained with hematoxylin and eosin and counted microscopically. Experiments were conducted in duplicate and the numbers of cells that migrated were counted in 10 microscope fields per transwell chamber. The data are expressed as percent of vehicle control invasion. Dose response curves were generated and are shown in FIG. 3 and the IC50s for inhibition of HUVEC invasion were determined and are presented above in Table 4. All of the 2-ME2 analogs inhibited HUVEC invasion.

DU 145 cells = experiment: SRB assay, inhibition of proliferation; type: cell-based, human; details: for IC50: Homo sapiens, DU 145, 48 hours, n=3 mean±SD; for potency relative to 2-ME2: DU 145 cell line
Experimental: as §1, §2, §3, §4

MDA-MB-435 cells = experiment: SRB assay, inhibition of proliferation; type: cell-based, human; details: for IC50: Homo sapiens, MDA-MB-435, 48 hours, n=3 mean±SD
Experimental: as §1, §2, §3, §4

[3] = test system: MDA-MB-435 breast cancer xenograft; experiment: MDA-MB-435 breast cancer xenograft model; type: in vivo, mice; details: for tumor growth delay: intraperitoneally daily for 30 days, time for median to reach tumor burden of 1500 mg vs control; for antitumor effect compared with 2-ME2: tumor burden versus time
Experimental: FIG. 4 illustrates the effects of compounds in an MDA-MB-435 breast cancer xenograft model. The data are the means of the groups ±SEM. Statistical significance (P<0.05) is indicated by an asterisk;
The analogs were tested for antitumor activity using an MDA-MB-435 breast cancer xenograft model. Tumor fragments of MDA-MB-435 (30 mg) were implanted subcutaneously into female athymic NCr-nu mice (SWF-1) weighing approximately 24 g. The tumor fragments were harvested from nude mice hosts. Animal weight and tumor dimensions were measured twice weekly with calipers and tumor weights estimated using 2-dimensional measurements of length and width and the formula [1×(w)^2]/2. When the tumors reached an approximate size equivalent to 175 mg (13 days after implantation) the mice were randomized to treatment or control groups and treatments were begun. The compounds were administered intraperitoneally daily for 30 days on the basis of individual animal body weights. Treatment groups contained 10 mice and the vehicle treated control group consisted of 20 mice. The mean tumor burdens were plotted for each treatment group and compared to controls. The means of the tumor burden data were analyzed for differences using a one-sided Student's t-test, with a P<0.05 considered to be significant difference. Tumor growth delay, the difference between the time for the median of each group (treatment and control) to reach a tumor burden of 1500 mg was calculated.

6 human tumor cell lines = experiment: SRB antiproliferative assay, panel of tumor cell lines; type: cell-based; details: for potency compared with 2-ME2, tumor cell lines: in words, 15-dehydro-2-ME2: MDA-MB-435, NCI/ADR, PC3, HeLa and SK-OV-3
Experimental: as §1, §2, §3

| Compound | IC50 (SK-OV-3 cells) | IC50 (PC3 cells) | IC50 (HeLa cells) | IC50 (NCI/ADR cells) | NCI-ADR/MDA-MB-435 resistance factor (NCI/ADR cells) | IC50 [1] | IC50 [2] | IC50 (DU 145 cells) | IC50 (MDA-MB-435 cells) | tumor growth delay [3] | antitumor effect compared with 2-ME2 [3] | potency compared with 2-ME2, tumor cell lines (6 human tumor cell lines) | potency relative to 2-ME2, HUVEC proliferation [1] | potency relative to 2-ME2 in inhibiting HUVEC invasion [2] | potency compared with 2-ME2 (MDA-MB-435 cells; MDA-MB-435 cell line, in words) | potency relative to 2-ME2 (6 human tumor cell lines; 5 of the 6 cell lines tested) | potency relative to 2-ME2 (DU 145 cells) | days with statistically significant differences between control and treated tumors ([3]; one-sided Student's t-test, P<0.05) | NCI-ADR/MDA-MB-435 resistance factor (NCI/ADR cells; listed as vinblastine) |
| --- | --- | --- | --- | --- | --- | --- | --- | --- | --- | --- | --- | --- | --- | --- | --- | --- | --- | --- | --- |
| COc1cc2c(cc1O)CCC1C2CC[C@@]2(C)C1CC[C@@H]2O (stereo partly drawn) [2-ME2, 2-Methoxyestradiol, reference compound] | 1790 ± 240 nM | 2220 ± 150 nM | 450 ± 40 nM | 380 ± 10 nM | 0.28 | 700 ± 110 nM | 1990 ± 390 nM | 4260 ± 950 nM | 1380 ± 100 nM | – | – | – | – | – | – | – | – | – | – |
| COc1cc2c(cc1O)CCC1C2CC[C@@]2(C)C1[C@H]1OC(C)(C)O[C@H]1[C@@H]2O (stereo partly drawn) [2-ME2-15α, 16α, 2-Methoxy-3,15α,16α,17β-tetrahydroxyestra-1,3,5(10)-triene 15,16-acetonide] | 5160 ± 990 nM | 5130 ± 1530 nM | 2980 ± 240 nM | 4210 ± 600 nM | 1.30 | 11900 ± 2170 nM | 16000 ± 1980 nM | 6780 ± 620 nM | 3240 ± 350 nM | 11.3 days | superior to 2-ME2 | generally less potent than 2-ME2 | less potent | less potent | – | – | – | – | – |
| COc1cc2c(cc1O)CC=C1[C@@H]2CC[C@]2(C)[C@@H](O)CC[C@@H]12 [7-dehydro-2-ME2, 2-Methoxyestra-1,3,5(10), 7-tetraen-3,17β-diol] | 4490 ± 180 nM | – | – | 2540 ± 440 nM | 1.29 | 4390 ± 370 nM | – | – | 1970 ± 400 nM | – | – | generally less potent than 2-ME2 | less potent | – | almost equipotent | – | – | – | – |
| COc1cc2c(cc1O)CC[C@H]1C3=CC[C@H](O)[C@@]3(C)CC[C@H]21 [14-dehydro-2-ME2, 2-Methoxyestra-1,3,5(10), 14-tetraen-3,17β-diol] | 150 ± 70 nM | 350 ± 90 nM | 50 ± 20 nM | 56 ± 10 nM | 1.0 | 49 nM | 300 ± 20 nM | 1580 ± 810 nM | 56 ± 2 nM | 10.0 days | superior to 2-ME2 | – | more potent than 2-ME2 | more than 6 times | – | 6-24 fold | 2.7 fold | – | – |
| COc1cc2c(cc1O)CC[C@@H]1[C@@H]2CC[C@]2(C)[C@@H](O)C=C[C@@H]12 [15-dehydro-2-ME2, 2-Methoxyestra-1,3,5(10), 15-tetraen-3,17β-diol] | 1370 ± 260 nM | 1820 ± 980 nM | 430 ± 80 nM | 490 ± 60 nM | 0.57 | 720 ± 20 nM | 2070 ± 80 nM | 1250 ± 320 nM | 860 ± 110 nM | 7.5 days | superior to 2-ME2 | approximately equal in potency to 2-ME2 | equipotent with the parental compound | equipotent with 2-ME2 | – | – | over three times more potent | days 16-26 and day 36 | – |
| CC(=O)O[C@H]1C(=O)[C@@]2(C)[C@H]([C@H](OC(=O)c3ccccc3)[C@]3(O)C[C@H](OC(=O)[C@H](O)[C@@H](NC(=O)c4ccccc4)c4ccccc4)C(C)=C1C3(C)C)[C@]1(OC(C)=O)CO[C@@H]1C[C@@H]2O [Taxol ®, reference compound] | – | – | – | 4460 ± 610 nM | 2218.91 | – | – | – | 2.01 ± 0.3 nM | – | – | – | – | – | – | – | – | – | – |
| CC[C@]1(O)C[C@@H]2CN(CCc3c([nH]c4ccccc34)[C@@](C(=O)OC)(c3cc4c(cc3OC)N(C)[C@H]3[C@@](O)(C(=O)OC)[C@H](OC(C)=O)[C@]5(CC)C=CCN6CC[C@]43[C@@H]65)C2)C1 [Vinblastine, reference compound] | – | – | – | 430 ± 70 nM | 139.61 | – | – | – | 3.08 ± 0.09 nM | – | – | – | – | – | – | – | – | – | 140 |
